Measured values taken from PMC3280214, “Structure Based Discovery of Small Molecules to Regulate the Activity of Human Insulin Degrading Enzyme” (PLoS ONE, 2012).
Several values for one entry are separate records, joined by “and”; a condition that tells them apart may be missing. Identical values can stand only once. Entries after “also recorded” stand apart in the source; their conditions may differ.

Columns and labels:
[1] = target: T1, IDE (Homo sapiens, UniProt P14735); test: Degradation of FITC-insulin-mAb by IDE; format: biochemical; details: for increase of IDE-mediated insulin (FITC-insulin-mAb) degradation: 20 µM compound; for effect of ATP on IDE activity for insulin degradation in presence of compound: 0.1 mM ATP; for EC50: dose response, Sigmoidal Hill 4 parameter fit; for increase of initial rate of proteolysis of FITC-insulin bound with antibody: wild type IDE, presence vs absence of compound
T1 construct: made in house; host or cells: E. coli BL21
T1 sequence (P14735 1-1019): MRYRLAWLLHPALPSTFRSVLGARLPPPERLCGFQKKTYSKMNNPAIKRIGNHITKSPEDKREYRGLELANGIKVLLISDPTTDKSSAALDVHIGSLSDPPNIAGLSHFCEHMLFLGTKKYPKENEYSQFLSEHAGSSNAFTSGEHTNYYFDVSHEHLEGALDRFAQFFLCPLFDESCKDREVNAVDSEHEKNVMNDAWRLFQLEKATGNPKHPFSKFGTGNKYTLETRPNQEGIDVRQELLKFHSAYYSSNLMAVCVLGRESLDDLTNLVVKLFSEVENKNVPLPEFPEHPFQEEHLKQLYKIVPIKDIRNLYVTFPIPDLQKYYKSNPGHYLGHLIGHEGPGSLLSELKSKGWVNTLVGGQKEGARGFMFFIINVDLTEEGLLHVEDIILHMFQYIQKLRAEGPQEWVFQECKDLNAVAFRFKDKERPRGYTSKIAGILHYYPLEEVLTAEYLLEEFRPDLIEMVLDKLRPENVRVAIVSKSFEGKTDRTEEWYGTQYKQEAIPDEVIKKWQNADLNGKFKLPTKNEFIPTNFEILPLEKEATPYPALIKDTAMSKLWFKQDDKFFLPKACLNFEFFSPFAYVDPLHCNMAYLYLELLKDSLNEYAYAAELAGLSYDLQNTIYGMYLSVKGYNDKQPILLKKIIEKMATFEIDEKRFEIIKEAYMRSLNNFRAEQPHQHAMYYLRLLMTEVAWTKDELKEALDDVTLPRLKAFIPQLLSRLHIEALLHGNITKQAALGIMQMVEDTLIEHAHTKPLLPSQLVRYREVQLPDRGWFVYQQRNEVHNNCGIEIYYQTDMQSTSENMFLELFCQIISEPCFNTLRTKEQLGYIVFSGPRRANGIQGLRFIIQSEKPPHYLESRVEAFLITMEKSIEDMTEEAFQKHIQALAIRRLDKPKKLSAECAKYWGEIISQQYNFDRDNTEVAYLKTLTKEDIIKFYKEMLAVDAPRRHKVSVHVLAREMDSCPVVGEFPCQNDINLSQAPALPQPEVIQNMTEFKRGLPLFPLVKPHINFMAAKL
Experimental: (§1) The 10 compounds given in Table 1 were subjected to further characterization and their effect was measured on the proteolytic activity of IDE using different substrates. Initially, activity assays were carried out at fixed 20 µM concentrations for all molecules to identify the effect of those compounds on IDE activity. IDE activity was quantified by monitoring the change in fluorescence for the proteolysis of fluorogenic-substrate V, FITC- insulin-bound antibody, and FAβB by recombinant human IDE purified from E.coli BL21 [6], [18], [19]. […] Also, D6 increased the amyloid-β degradation by 20% (Fig. S1C). Further, D10 enhanced IDE-mediated FITC-insulin-mAb and substrate V degradation by 290% and 65%, respectively (Fig. S1A, B). Next, an EC50 value of each molecule that enhanced IDE activity was determined with a dose response assay, where specific activity of IDE was measured with different concentrations of the lead compounds and then the plot was fit to Sigmoidal Hill-4 parameter equation. […] EC50 value for D3 on insulin degradation was approximately measured as 20 µM (Fig. S2C), whereas EC50 value for D6 on amyloid-β degradation was 2 µM (Fig. S2D). […] Among all these four compounds, D10 seems to be the potent activator of IDE, when proteolysis of insulin is considered.
In order to measure degradation of insulin by IDE, FITC-insulin is bound to the monoclonal mouse anti-human-insulin, so that the rotation of free FITC and possible changes in fluorescence polarization could be prevented. We performed enzymatic assays, using only FITC-insulin bound antibody as a background fluorescence and checked the effects of compounds on the cleavage of FITC-insulin-mAb. FITC-insulin is bound to mouse anti human insulin antibody in PBS at 37°C for 1 hour, which is higher than the optimum time required to obtain maximum binding of insulin-FITC conjugate and mAb. It is observed that 400 nM mAb completely binds to 50 nM FITC-insulin (Fig. S7). Since molecular weights of FITC-insulin and mAb are about 5.8 kDa and 60 kDa respectively, we observed very slight shift in the gel as expected. In figure S7, it is observed in lane 4 that 50 nM (100 ng) insulin is completely bound to 400 nM mAb in lane 4 (Fig. S7). […] The binding between insulin and mAb is shown by performing (%5 and %15) native polyacrylamide gel electrophoresis.
The utility of these novel compounds were tested on degradation of insulin by IDE. First insulin was labeled with FITC as described previously. Briefly, 500 mg insulin dissolved in 1.5 ml of 0.1 M Na-carbonate, at pH 7, and 0.2 mM EDTA. Then, 4.5 mg FITC was dissolved in 200 µl acetone and was added dropwise to previous solution at room temperature for 20 h ([FITC]∶[insulin], 3∶1). Finally, unreacted FITC was removed by dialysis and the FITC-insulin was stored at −20°C. The proteolysis of insulin by IDE was monitored by measuring the changes in fluorescence, where the reaction was carried out with 100 nM of FITC- insulin-mAb and IDE (80 ng) in 100 µl KH2PO4 buffer at a pH of 7.3. Reaction was carried out at 37°C for different time intervals (0–4 hours). The increase in fluorescence was monitored by using Fluoroskan Ascent FL microplate reader (Thermo).
(§2) The effect of the lead compounds on the initial rate of proteolysis of IDE was determined by measurement in fluorescence with time both in the presence and absence of the lead compounds. The kinetic data for IDE-mediated insulin, substrate V and amyloid-β degradation were plotted and fitted using SigmaPlot software (Sigmoidal, Hill, 4 parameter). For the initial rate calculations, kinetic data were fitted using SigmaPlot software (Hyperbola; Single Rectangular I, 3 Parameter).

[2] = target: T1, IDE; test: Degradation of fluorogenic substrate V by IDE; format: biochemical; details: for increase of IDE-mediated substrate V degradation: 20 µM compound; for EC50: dose response, Sigmoidal Hill 4 parameter fit
Experimental: as §1
To assess the utility of these novel compounds as chemical regulators for IDE activity, we used fluorescence assay with fluorogenic substrate V (7-methoxycoumarin-4-yl-acetyl-NPPGFSAFK-2, 4-dinitrophenyl). Reaction was carried out in the presence of 105 µl of 10 µl of 40 µM substrate V; 10 µl of 0.02 mg/ml of IDE in 83 µl of 30 mM KH2PO4 at pH of 7.3, and various concentrations (0–35 µM) compounds and also with various time intervals (0–4 hours). The reaction mixture was incubated at 37°C for 2.5 h. The hydrolysis of substrate V was monitored using a Tecan Safire2 microplate reader with excitation and emission wavelengths set at 300 and 395 nm, respectively.
as §2

Structure (SMILES)	increase of IDE-mediated insulin (FITC-insulin-mAb) degradation [1]	effect of ATP on IDE activity for insulin degradation in presence of compound [1]	EC50 [1] [µM]	increase of initial rate of proteolysis of FITC-insulin bound with antibody [1] [fold]	increase of IDE-mediated substrate V degradation [2]	EC50 [2] [µM]	increase of initial rate of substrate V degradation ([2]; presence vs absence of compound)
COc1ccc(C2C(C(=O)Nc3ccccc3)=C(C)N=c3sc(=Cc4cn(C)nc4C)c(=O)n32)cc1 (centres unmarked) [Compound D3]	72%	did not change significantly; also recorded: no effect	~20	~7.5			
Nc1c(C(=O)Nc2ccccc2F)c2ccccn2c1C(=O)c1ccc2c(c1)CCCC2 [Compound D4]	60%	did not change significantly; also recorded: no effect	13	~12	36%	7	
Cc1nn(-c2ccccc2)c2nc(-c3cccc([N+](=O)[O-])c3)n3c4ccccc4nc3c2c1=O [Compound D10]	290% and ~275%	did not change significantly; also recorded: no effect	12	~49	65% and 60%	13	about 2 fold
